Experimental data as given in article PMC8015083 (ACS Omega, 2021).
≈ marks a conversion by molar mass, not a printed value. Where “and” joins values, the source holds several entries; their conditions need not be identical. Equal values may be shown once. Read-outs that look alike come from different tables or passages of the source.

Key:
C. neoformans = experiment: microbe, parasite or virus in culture; assay type: cell-based, Cryptococcus neoformans; conditions: for MIC80: Cryptococcus neoformans
C. neoformans KN99 [1] = experiment: microbe, parasite or virus in culture; assay type: cell-based; conditions: Cryptococcus neoformans, KN99, 48 h, read-out: C. neo MIC80
M. furfur = experiment: microbe, parasite or virus in culture; assay type: cell-based; conditions: Malassezia furfur, read-out: MIC80 in M. furfur
M. pachydermatis = experiment: microbe, parasite or virus in culture; assay type: cell-based; conditions: Malassezia pachydermatis, read-out: MIC80 in M. pachydermatis
C. neoformans KN99 [2] = assay type: cell-based, Cryptococcus neoformans
C. neoformans KN99 [3] = assay type: cell-based, Cryptococcus neoformans; remark: listed apart in the source
[4] = tested on: C. neoformans aox1Δ strain; assay type: cell-based, Cryptococcus neoformans
[5] = human, in vivo; cited from earlier work

Structure (SMILES): C[C@@H]1[C@H](O)[C@@H](C)/C=C/C=C/C=C/C=C/C=C/C=C/C=C/[C@H](O[C@@H]2O[C@H](C)[C@@H](O)[C@H](N)[C@@H]2O)C[C@@H]2O[C@](O)(C[C@@H](O)C[C@@H](O)[C@H](O)CC[C@@H](O)C[C@@H](O)CC(=O)O[C@H]1C)C[C@H](O)[C@H]2C(=O)O [AMB, amphotericin B]
- MIC80 (C. neoformans; read-out: MIC80 alone, AMB): 1.5 µM (≈ 1.39 µg/mL)

Structure (SMILES): Cc1cc(-c2ccc(S(=O)(=O)O)cc2)c2ccc3c(-c4ccc(S(=O)(=O)O)cc4)cc(C)nc3c2n1 [BCS, bathocuproinedisulfonic acid]
- MIC80 alone, BCS (C. neoformans): >200 µM

Structure (SMILES): O=C(NO)c1ccccc1O [SHAM, salicylhydroxamic acid]
- MIC80 (C. neoformans; read-out: MIC80 alone, SHAM): 2000 µM (≈ 306 µg/mL)

Structure (SMILES): Cc1cc(C2CCCCC2)n(O)c(=O)c1 [CPO, Ciclopirox olamine]
- MIC (C. neoformans KN99 [1]): 0.87 µM and 0.18 µg/mL
- MIC80 (M. furfur): ~25 µM (≈ 5.18 µg/mL)
- MIC80 (M. pachydermatis): ~25 µM (≈ 5.18 µg/mL)
- killing of the cells (C. neoformans KN99 [2]): 99.9%
- FICI (C. neoformans): 0.75
- rescue of inhibition by exogenous copper (C. neoformans KN99 [3]): partially rescued
- rescue of inhibition by exogenous iron (C. neoformans KN99 [3]): fully rescued
- rescue of inhibition by zinc (C. neoformans KN99 [3]): did not rescue
- MIC80 in aox1Δ strain compared with wild type [4]: no difference in sensitivity
- tolerability of oral dosing [5]: well tolerated

Structure (SMILES): Cc1cc(CC2CCCCC2)n(O)c(=O)c1 [SLU-2321]
- FICI (C. neoformans): 0.63
- FICI in combination with CPO (C. neoformans): 0.51
- rescue of inhibition by exogenous copper (C. neoformans KN99 [3]): only partially rescued
- rescue of inhibition by exogenous iron (C. neoformans KN99 [3]): fully rescued
- rescue of inhibition by zinc (C. neoformans KN99 [3]): did not rescue

Structure (SMILES): Cc1c(O)c(=O)ccn1C [DFP, deferiprone]
- MIC80 alone, DFP (C. neoformans): 200 µM (≈ 27.8 µg/mL)
- MIC80 (C. neoformans; read-out: MIC80 alone, DFP): > 200 µM

Structure (SMILES): Cc1ccc2ccc3ccc(C)nc3c2n1 [neocuproine]
- MIC80 (C. neoformans; read-out: MIC80 alone, neocuproine): 0.25 µM (≈ 0.0521 µg/mL)

Structure (SMILES): O=C(O)CC(=O)O [malonate]
- MIC80 (C. neoformans; read-out: MIC80 alone, malonate): 25 µM (≈ 2.6 µg/mL)

Structure (SMILES): OC(Cn1cncn1)(Cn1cncn1)c1ccc(F)cc1F [FLC, fluconazole]
- MIC80 (C. neoformans; read-out: MIC80 alone, FLC): 3 µM (≈ 0.919 µg/mL)

Structure (SMILES): Cc1cc(Cc2ccc(Cl)cc2)n(O)c(=O)c1 [SLU-2707]
- FICI (C. neoformans): 0.63
- FICI in combination with CPO (C. neoformans): 0.37
- rescue of inhibition by exogenous copper (C. neoformans KN99 [3]): did not rescue
- rescue of inhibition by exogenous iron (C. neoformans KN99 [3]): fully rescued
- rescue of inhibition by zinc (C. neoformans KN99 [3]): did not rescue

Structure (SMILES): CO/C(=C/C(N)=O)[C@H](C)[C@H](/C=C/c1csc(-c2csc([C@@H](C)/C=C/C=C/C(C)C)n2)n1)OC [myxothiazol]
- MIC80 alone, myxothiazol (C. neoformans): 5 µM (≈ 2.44 µg/mL)

Structure (SMILES): C=C(C)[C@H]1Cc2c(ccc3c2O[C@@H]2COc4cc(OC)c(OC)cc4[C@@H]2C3=O)O1 [rotenone]
- MIC80 (C. neoformans; read-out: MIC80 alone, rotenone): 15 µM (≈ 5.92 µg/mL)
